From patent US7977371B2, “Pyrrole derivative having ureido group and aminocarbonyl group as substituents” (Santen Pharmaceutical Co., Ltd., priority 2007, dated 2011)

tested on: TNF-α-induced IL-6 production in normal human skin fibroblast-derived CCD-1059Sk cells; experiment: Test for measurement of inhibitory activity against TNF-α-induced IL-6 production; type: cell-based; conditions: Homo sapiens, CCD-1059Sk, 16 h, test compound at 10 μM, TNF-α stimulation 16 hours, inhibition ratio of 100% or more is indicated as 100%
Description: 1. Test for Measurement of Inhibitory Activity Against IL-6 Production
An inhibitory effect on TNF-α-induced IL-6 production in normal human skin fibroblast-derived CCD-1059Sk cells (ATCC No. CRL-2072) was evaluated. The amount of IL-6 was determined by the homogeneous time-resolved fluorescence method using HTRF™ Human IL-6 kit (Cat. No. 62IL6PEB, manufactured by CIS-Bio international, Inc.). Specific test methods will be described below.
(Preparation of Test Compound Solution)
After a test compound was dissolved in dimethyl sulfoxide, the resulting solution was diluted with D-MEM medium containing 0.1% heat-inactivated fetal bovine serum, 0.1 mM MEM non-essential amino acid solution, 100 U/mL penicillin and 100 μg/mL streptomycin (hereinafter referred to as “medium”), whereby a 40 μM test compound solution was prepared.
(Test Method and Measurement Method)
1) CCD-1059Sk cells prepared at a density of 3×10^5 cells/mL were inoculated in a 384-well plate in an amount of 10 μL per well such that the cell density was 3×10^3 cells/well.
2). After the plate was incubated at 37° C. for several hours in a CO2 incubator, 5 μL of the test compound was added to each well.
3) After the plate was incubated at 37° C. for 1 hour in a CO2 incubator, 5 μL of a 40 ng/mL TNF-α solution was added to each well.
4) After the plate was incubated at 37° C. for 16 hours in a CO2 incubator, 10 μL of a cryptate-labeled anti-IL-6 antibody and an XL665-labeled anti-IL-6 antibody containing potassium fluoride was added to each well.
5) After the plate was incubated at room temperature for several hours, a fluorescence intensity ratio (665 nm/620 nm) was determined for each well using a multimode plate reader Analyse™ HT (manufactured by Molecular Device Corporation) and Criterion Host software version 2.00 (manufactured by Molecular Device Corporation), and then, the amount of IL-6 was calculated.
6) The same procedures as in the above 1) to 5) were performed except that 0.4% dimethyl sulfoxide was added in place of the test compound, and the obtained result was designated as the control.
7) The same procedures as in the above 1) to 5) were performed except that 0.4% dimethyl sulfoxide and the medium were added in place of the test compound and the TNF-α solution, respectively, and the obtained result was designated as the background.
(Calculation Formula of IL-6 Production Inhibition Ratio)
An IL-6 production inhibition ratio (%) was calculated from the following formula. IL-6 Production Inhibition Ratio (%)=100×{1−[(Amount of IL-6 for Test Compound)−(Amount of IL-6 for Background)/(Amount of IL-6 for Control)−(Amount of IL-6 for Background)]} (Evaluation Results)

SMILES | inhibition at 10 µM [%]
NC(=O)Nc1[nH]c(-c2ccc(Br)cc2)cc1C(N)=O [Compound 1-1, 2-Aminocarbonylamino-5-(4-bromophenyl)pyrrole-3-carboxamide] | 94
NC(=O)Nc1[nH]c(-c2ccccn2)cc1C(N)=O [Compound 1-2, 2-Aminocarbonylamino-5-(pyridin-2-yl) pyrrole-3-carboxamide] | 85
NC(=O)Nc1[nH]c(-c2ccccc2)cc1C(N)=O [Compound 1-4, 2-Aminocarbonylamino-5-phenylpyrrole-3-carboxamide] | 88
NC(=O)Nc1[nH]c(-c2ccc(-c3ccccc3)cc2)cc1C(N)=O [Compound 1-5, 2-Aminocarbonylamino-5-(4-biphenyl) pyrrole-3-carboxamide] | 67
NC(=O)Nc1[nH]c(-c2cccc([N+](=O)[O-])c2)cc1C(N)=O [Compound 1-6, 2-Aminocarbonylamino-5-(3-nitrophenyl) pyrrole-3-carboxamide] | 92
Cc1ccc(-c2cc(C(N)=O)c(NC(N)=O)[nH]2)cc1 [Compound 1-11, 2-Aminocarbonylamino-5-(4-methylphenyl) pyrrole-3-carboxamide] | 88
NC(=O)Nc1[nH]c(-c2ccccc2C(F)(F)F)cc1C(N)=O [Compound 1-13, 2-Aminocarbonylamino-5-(2-trifluoromethylphenyl)pyrrole-3-carboxamide] | 93
N#Cc1ccc(-c2cc(C(N)=O)c(NC(N)=O)[nH]2)cc1 [Compound 1-15, 2-Aminocarbonylamino-5-(4-cyanophenyl) pyrrole-3-carboxamide] | 80
NC(=O)Nc1[nH]c(-c2cccs2)cc1C(N)=O [Compound 1-16, 2-Aminocarbonylamino-5-(thiophen-2-yl) pyrrole-3-carboxamide] | 94
COc1ccc(OC)c(-c2cc(C(N)=O)c(NC(N)=O)[nH]2)c1 [Compound 1-17, 2-Aminocarbonylamino-5-(2,5-dimethoxyphenyl) pyrrole-3-carboxamide] | 96
COc1ccc(F)cc1-c1cc(C(N)=O)c(NC(N)=O)[nH]1 [Compound 1-19, 2-Aminocarbonylamino-5-(5-fluoro-2-methoxyphenyl)pyrrole-3-carboxamide] | 100
Cc1c(-c2ccc(Br)cc2)[nH]c(NC(N)=O)c1C(N)=O [Compound 1-21, 2-Aminocarbonylamino-5-(4-bromophenyl)-4-methylpyrrole-3-carboxamide] | 88
COc1cc(C)c(Cl)cc1-c1cc(C(N)=O)c(NC(N)=O)[nH]1 [Compound 1-24, 2-Aminocarbonylamino-5-(5-chloro-2-methoxy-4-methylphenyl)pyrrole-3-carboxamide] | 99
NC(=O)Nc1[nH]c(-c2cc(Cl)ccc2Cl)cc1C(N)=O [Compound 1-27, 2-Aminocarbonylamino-5-(2,5-dichlorophenyl) pyrrole-3-carboxamide] | 100
NC(=O)Nc1[nH]c(-c2cccc(F)c2)cc1C(N)=O [Compound 1-28, 2-Aminocarbonylamino-5-(3-fluorophenyl) pyrrole-3-carboxamide] | 97
CCOC(=O)c1ccc(-c2cc(C(N)=O)c(NC(N)=O)[nH]2)cc1 [Compound 1-30, 2-Aminocarbonylamino-5-(4-ethoxycarbonylphenyl) pyrrole-3-carboxamide] | 90
NC(=O)Nc1[nH]c(-c2ccc(F)c(Cl)c2)cc1C(N)=O [Compound 1-36, 2-Aminocarbonylamino-5-(3-chloro-4-fluorophenyl)pyrrole-3-carboxamide] | 100
COc1ccc(-c2cc(C(N)=O)c(NC(N)=O)[nH]2)cc1Cl [Compound 1-37, 2-Aminocarbonylamino-5-(3-chloro-4-methoxyphenyl)pyrrole-3-carboxamide] | 98
N#Cc1cccc(-c2cc(C(N)=O)c(NC(N)=O)[nH]2)c1 [Compound 1-39, 2-Aminocarbonylamino-5-(3-cyanophenyl) pyrrole-3-carboxamide] | 99

SMILES | inhibition at 10 µM [%]
NC(=O)Nc1[nH]c(-c2ccccc2Cl)cc1C(N)=O [Compound 1-40, 2-Aminocarbonylamino-5-(2-chlorophenyl) pyrrole-3-carboxamide] | 99
Cc1ccc(-c2cc(C(N)=O)c(NC(N)=O)[nH]2)s1 [Compound 1-41, 2-Aminocarbonylamino-5-(5-methylthiophen-2-yl) pyrrole-3-carboxamide] | 96
Cc1ccccc1-c1cc(C(N)=O)c(NC(N)=O)[nH]1 [Compound 1-42, 2-Aminocarbonylamino-5-(2-methylphenyl) pyrrole-3-carboxamide] | 94
CSc1cccc(-c2cc(C(N)=O)c(NC(N)=O)[nH]2)c1 [Compound 1-43, 2-Aminocarbonylamino-5-(3-methylthiophenyl) pyrrole-3-carboxamide] | 88
CCSc1cccc(-c2cc(C(N)=O)c(NC(N)=O)[nH]2)c1 [Compound 1-44, 2-Aminocarbonylamino-5-(3-ethylthiophenyl) pyrrole-3-carboxamide] | 92
NC(=O)Nc1[nH]c(-c2ccccc2F)cc1C(N)=O [Compound 1-45, 2-Aminocarbonylamino-5-(2-fluorophenyl) pyrrole-3-carboxamide] | 95
NC(=O)Nc1[nH]c(-c2ccc(Cl)s2)cc1C(N)=O [Compound 1-48, 2-Aminocarbonylamino-5-(5-chlorothiophen-2-yl)pyrrole-3-carboxamide] | 98
Cc1cc(-c2cc(C(N)=O)c(NC(N)=O)[nH]2)c(C)s1 [Compound 1-51, 2-Aminocarbonylamino-5-(2,5-dimethylthiophen-3-yl)pyrrole-3-carboxamide] | 96
NC(=O)Nc1[nH]c(-c2cc(F)c(F)cc2F)cc1C(N)=O [Compound 1-52, 2-Aminocarbonylamino-5-(2,4,5-trifluorophenyl) pyrrole-3-carboxamide] | 93
NC(=O)Nc1[nH]c(-c2cc(F)ccc2F)cc1C(N)=O [Compound 1-53, 2-Aminocarbonylamino-5-(2,5-difluorophenyl) pyrrole-3-carboxamide] | 94
NC(=O)Nc1[nH]c(-c2ccccc2O)cc1C(N)=O [Compound 3-1, 2-Aminocarbonylamino-5-(2-hydroxyphenyl)pyrrole-3-carboxamide] | 95
NC(=O)Nc1[nH]c(-c2cc(F)ccc2O)cc1C(N)=O [Compound 3-3, 2-Aminocarbonylamino-5-(5-fluoro-2-hydroxyphenyl)pyrrole-3-carboxamide] | 100
NC(=O)Nc1[nH]c(-c2cc(Cl)ccc2O)cc1C(N)=O [Compound 3-4, 2-Aminocarbonylamino-5-(5-chloro-2-hydroxyphenyl)pyrrole-3-carboxamide] | 100
N#CCOc1ccccc1-c1cc(C(N)=O)c(NC(N)=O)[nH]1 [Compound 4-1, 2-Aminocarbonylamino-5-(2-cyanomethyloxyphenyl)pyrrole-3-carboxamide] | 96
N#CCOc1cccc(-c2cc(C(N)=O)c(NC(N)=O)[nH]2)c1 [Compound 4-9, 2-Aminocarbonylamino-5-(3-cyanomethyloxyphenyl) pyrrole-3-carboxamide] | 89
CCOc1ccccc1-c1cc(C(N)=O)c(NC(N)=O)[nH]1 [Compound 4-11, 2-Aminocarbonylamino-5-(2-ethoxyphenyl)pyrrole-3-carboxamide] | 97
NC(=O)Nc1[nH]c(-c2ccccc2OCc2cccnc2)cc1C(N)=O [Compound 4-15, 2-Aminocarbonylamino-5-[2-(pyridin-3-ylmethyloxy)phenyl]pyrrole-3-carboxamide] | 91
NC(=O)Nc1[nH]c(-c2ccccc2OCC2CC2)cc1C(N)=O [Compound 4-23, 2-Aminocarbonylamino-5-(2-cyclopropylmethyloxyphenyl) pyrrole-3-carboxamide] | 97

same assay, conditions: test compound at 10 μM, TNF-α stimulation 16 hours, inhibition ratio of 100% or more is indicated as 100%

SMILES | IL-6 production inhibition ratio [%]
COc1ccc(Cl)cc1-c1cc(C(N)=O)c(NC(N)=O)[nH]1 [Compound 1-22, 2-Aminocarbonylamino-5-(5-chloro-2-methoxyphenyl)pyrrole-3-carboxamide] | 100
